Experimental data: patent US4117142A, “Disubstituted triphenylmethylmidazoles for treating mycotic infections” (Bayer Aktiengesellschaft, priority 1972, dated 1978)
Converted amounts (≈) assume the structure as drawn.

Experiments:
Candida albicans [1] = assay: Candidosis in mice, oral treatment; assay type: in vivo, Mice of the type SPF-C1; conditions: orally 50, 75, 100 and 150 mg/kg, one hour before and 7 hours after infection; untreated control ~5% survival
Procedure: Description of the experiment:
Mice of the type SPF-C1 were infected intravenously with 1-2 × 10^6 logarithmically-growing Candida cells suspended in physiological sodium chloride solution.
One hour before, and 7 hours after, the infection the animals are treated orally with 50, 75, 100 and 150 mg/kg of body weight of the preparations.
Untreated animals died of the infection 3 to 6 days after infection. The survival rate on the 6th day after infection was ~ 5% in untreated control animals.

[2] = system: Trichophyton mentagrophytes; assay: Series dilution test in vitro, minimum inhibitory concentration, Trichophyton mentagrophytes; assay type: cell-based; conditions: 28° C, 24 to 96 hours
Procedure: (§1) Determination of the antimycotic spectrum of activity in vitro by the series dilution test.
(§2) The nutrient media used were Sabouraud's milieu d'epreuve for dermatophyties and molds and meat broth-glucose bouillon for blastomyces and biphase fungi.
(§3) The incubation temperature was 28° C and the incubation time was 24 to 96 hours.

Candida Albicans [3] = assay: Series dilution test in vitro, minimum inhibitory concentration, Candida albicans; assay type: cell-based; conditions: 28° C, 24 to 96 hours
Procedure: as §1, §2, §3

Aspergillus niger = assay: Series dilution test in vitro, minimum inhibitory concentration, Aspergillus niger; assay type: cell-based; conditions: 28° C, 24 to 96 hours
Procedure: as §1, §2, §3

SMILES: Clc1cccc(C(c2ccccc2)(c2ccccc2)n2ccnc2)c1Cl [Example 6, 1-(2,3-Dichlorophenyl-diphenyl)-methyl-imidazole]
- Action on candidosis in Mice (survival on the 6th day after infection) (Candida albicans [1]): +++++ (very good action = >90% survival on the 6th day after infection)

SMILES: Cc1cc(Cl)ccc1C(c1ccccc1)(c1ccccc1)n1ccnc1 [Example 4, 1-(2-Methyl-4-chlorophenyl-diphenyl)-methyl-imidazole]
- MIC ([2]; n.s. = no added serum): < 1 µg/mL
- MIC ([2]; w.s. = with 30% serum added): 10 µg/mL (≈ 27.9 µM)
- MIC (Candida Albicans [3]; n.s. = no added serum): 1 µg/mL (≈ 2.79 µM)
- MIC (Candida Albicans [3]; w.s. = with 30% serum added): 40 µg/mL (≈ 111 µM)
- Action on candidosis in Mice (survival on the 6th day after infection) (Candida albicans [1]): +++++ (very good action = >90% survival on the 6th day after infection)

SMILES: Clc1cccc(Cl)c1C(c1ccccc1)(c1ccccc1)n1ccnc1 [Example 7, 1-(2,6-Dichlorophenyl-diphenyl)-methyl-imidazole]
- MIC ([2]; n.s. = no added serum): < 1 µg/mL
- MIC ([2]; w.s. = with 30% serum added): 4 µg/mL (≈ 10.5 µM)
- MIC (Candida Albicans [3]; n.s. = no added serum): 1 µg/mL (≈ 2.64 µM)
- Action on candidosis in Mice (survival on the 6th day after infection) (Candida albicans [1]): +++++ (very good action = >90% survival on the 6th day after infection)

SMILES: Cc1cccc(C(c2ccccc2)(c2ccccc2)n2ccnc2)c1C [Example 1, 1-(2,3-dimethylphenyl-diphenyl)-methyl-imidazole]
- MIC ([2]; n.s. = no added serum): < 1 µg/mL
- MIC ([2]; w.s. = with 30% serum added): 4 µg/mL (≈ 11.8 µM)
- MIC (Aspergillus niger; n.s. = no added serum): 4 µg/mL (≈ 11.8 µM)
- MIC (Aspergillus niger; w.s. = with 30% serum added): 40 µg/mL (≈ 118 µM)
- MIC (Candida Albicans [3]; n.s. = no added serum): 1 µg/mL (≈ 2.95 µM)
- Action on candidosis in Mice (survival on the 6th day after infection) (Candida albicans [1]): +++++ (very good action = >90% survival on the 6th day after infection)

SMILES: Cc1ccccc1C(c1ccccc1)(c1ccccc1C)n1ccnc1 [Example 8, 1-(2-Methylphenyl-2'-methylphenyl-phenyl)-methyl-imidazole]
- MIC ([2]; n.s. = no added serum): < 1 µg/mL
- MIC ([2]; w.s. = with 30% serum added): 10 µg/mL (≈ 29.5 µM)
- MIC (Candida Albicans [3]; n.s. = no added serum): 1 µg/mL (≈ 2.95 µM)
- Action on candidosis in Mice (survival on the 6th day after infection) (Candida albicans [1]): +++++ (very good action = >90% survival on the 6th day after infection)

SMILES: Clc1ccccc1C(c1ccccc1)(c1ccccc1Cl)n1ccnc1 [Example 9, 1-(2-Chlorophenyl-2'-chlorophenyl-phenyl)-methyl-imidazole]
- MIC ([2]; n.s. = no added serum): < 1 µg/mL
- MIC ([2]; w.s. = with 30% serum added): 4 µg/mL (≈ 10.5 µM)
- MIC (Aspergillus niger; w.s. = with 30% serum added): 10 µg/mL (≈ 26.4 µM)
- MIC (Candida Albicans [3]; n.s. = no added serum): 1 µg/mL (≈ 2.64 µM)
- Action on candidosis in Mice (survival on the 6th day after infection) (Candida albicans [1]): ++++ (good action = >80% survival on the 6th day after infection)

SMILES: Cc1ccc(C(c2ccccc2)(c2ccccc2)n2ccnc2)c(C)c1 [Example 2, 1-(2,4-Dimethylphenyl-diphenyl)-methyl-imidazole]
- Action on candidosis in Mice (survival on the 6th day after infection) (Candida albicans [1]): +++++ (very good action = >90% survival on the 6th day after infection)

SMILES: Cc1ccc(C)c(C(c2ccccc2)(c2ccccc2)n2ccnc2)c1 [Example 3, 1-(2,5-Dimethylphenyl-diphenyl)-methyl-imidazole]
- MIC ([2]; n.s. = no added serum): < 1 µg/mL
- MIC ([2]; w.s. = with 30% serum added): 40 µg/mL (≈ 118 µM)
- MIC (Candida Albicans [3]; n.s. = no added serum): 1 µg/mL (≈ 2.95 µM)
- Action on candidosis in Mice (survival on the 6th day after infection) (Candida albicans [1]): ++++ (good action = >80% survival on the 6th day after infection)
